Laboratory results taken from patent US9302999B2, “Substituted triazoles as herbicides” (E. I. DU PONT DE NEMOURS AND COMPANY, priority 2012, dated 2016).

Columns and labels:
Type in all cases: in vivo
Oilseed Rape = experiment: Test C preemergence: oilseed rape; settings: scale 0 (no effect) to 100 (complete control)
[1] = system: dayflower, VA (Virginia (VA) dayflower, Commelina virginica); experiment: Test F pre-/postemergence: dayflower, VA
Summary of the method: (§1)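 Seeds were sown in silt loam soil and sprayed preemergence with test chemical in a non-phytotoxic solvent mixture containing surfactant; postemergence treatments went onto plants 2 to 18 cm tall (1- to 4-leaf stage) grown in peat moss/vermiculite medium. After 14 to 21 days in a greenhouse, injury was rated visually against controls, 0 (no effect) to 100 (complete control).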

[2] = system: lambsquarters (Chenopodium album); experiment: Test F pre-/postemergence: lambsquarters; settings: Preemergence
Description: Seeds of plant species selected from corn (Zea mays), soybean (Glycine max), velvetleaf (Abutilon theophrasti), lambsquarters (Chenopodium album), poinsettia, wild (wild poinsettia, Euphorbia heterophylla), pigweed, palmer (palmer pigweed, Amaranthus palmeri), waterhemp (common waterhemp, Amaranthus rudis), surinam grass (Brachiaria decumbens), crabgrass, Brazil (Brazilian crabgrass, Digitaria horizontalis), panicum, fall (fall panicum Panicum dichotomiflorum), crabgrass, large (large crabgrass, Digitaria sanguinalis), foxtail, giant (giant foxtail, Setaria faberii), foxtail, green (green foxtail Setaria viridis), goosegrass (Eleusine indica), ragweed (common ragweed, Ambrosia elatior), barnyardgrass (Echinochloa crus-galli), sandbur (southern sandbur, Cenchrus echinatus), arrowleaf sida (Sida rhombifolia), ryegrass, Italian (Italian ryegrass, Lolium multiflorum), dayflower, VA (Virginia (VA) dayflower, Commelina virginica), field bindweed (Convolvulus arvensis), cocklebur (common cocklebur, Xanthium strumarium), morningglory (Ipomoea coccinea), nightshade (eastern black nightshade, Solanum ptycanthum), kochia (Kochia scoparia), nutsedge, yellow (yellow nutsedge, Cyperus esculentus), johnsongrass (Sorghum halepense), smartweed (ladysthumb smartweed, Polygonum persicaria), and beggarticks (hairy beggarticks, Bidens pilosa), were planted into a silt loam soil and treated preemergence with test chemicals formulated in a non-phytotoxic solvent mixture which included a surfactant. At the same time, plants selected from these crop and weed species and also pigweed (Amaranthus retroflexus), waterhemp_RES1 (ALS/Triazine resistant common waterhemp, Amaranthus rudis) and waterhemp_RES2 (ALS/HPPD resistant common waterhemp, Amaranthus rudis) were planted in pots containing a planting medium comprising spaghnum peat moss, vermiculite, wetting agent and starter nutrients treated with postemergence applications of some of the test chemicals formulated in the same manner. Plants ranged in height from 2 to 18 cm for postemergence treatments (1- to 4-leaf stage).
Treated plants and controls were maintained in a greenhouse for 14 to 21 days, after which time all species were compared to controls and visually evaluated. Plant response ratings, summarized in Table E, are based on a scale of 0 to 100 where 0 is no effect and 100 is complete control. A dash (-) response means no test result.

[3] = system: goosegrass (Eleusine indica); experiment: Test F pre-/postemergence: goosegrass; settings: Preemergence
Summary of the method: as §1

corn (Zea mays) = experiment: Test F pre-/postemergence: corn
Summary of the method: as §1

[4] = system: ragweed (common ragweed, Ambrosia elatior); experiment: Test F pre-/postemergence: ragweed; settings: Preemergence
Summary of the method: as §1

[5] = system: speedwell (bird's-eye speedwell, Veronica persica); experiment: Test D pre-/postemergence: speedwell; settings: Preemergence
Summary of the method: (§2)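 We sprayed chemicals in a surfactant-containing solvent onto silt loam at planting (preemergence) and onto 1- to 4-leaf seedlings (postemergence). Fourteen to 21 days later, each species was rated visually from 0 to 100 relative to controls.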

[6] = system: Russian thistle (Salsola iberica); experiment: Test D pre-/postemergence: Russian thistle; settings: Postemergence
Summary of the method: as §2

[7] = system: lambsquarters (Chenopodium album); experiment: Test D pre-/postemergence: lambsquarters
Summary of the method: as §2

[8] = system: barley, spring (spring barley, Hordeum vulgare); experiment: Test D pre-/postemergence: barley, spring
Summary of the method: as §2

[9] = system: barley, winter (winter barley, Hordeum vulgare); experiment: Test D pre-/postemergence: barley, winter
Summary of the method: as §2

[10] = Preemergence, 16 g ai/ha, scale 0 to 100, 0 no effect, 100 complete control
[11] = Preemergence, 31 g ai/ha, scale 0 to 100, 0 no effect, 100 complete control
[12] = Preemergence, 62 g ai/ha, scale 0 to 100
[13] = Preemergence, 125 g ai/ha, scale 0 to 100
[14] = Preemergence, 250 g ai/ha, scale 0 to 100
[15] = 16 g ai/ha, scale 0 to 100, 0 no effect, 100 complete control
[16] = 31 g ai/ha, scale 0 to 100, 0 no effect, 100 complete control
[17] = Postemergence, 250 g ai/ha, scale 0 to 100
[18] = Postemergence, 31 g ai/ha, scale 0 to 100
[19] = Postemergence, 125 g ai/ha, scale 0 to 100
[20] = Postemergence, 8 g ai/ha, scale 0 to 100
[21] = Postemergence, 16 g ai/ha, scale 0 to 100
[22] = Postemergence, 62 g ai/ha, scale 0 to 100
[23] = Preemergence, 8 g ai/ha, scale 0 to 100, 0 no effect, 100 complete control
[24] = 8 g ai/ha, scale 0 to 100, 0 no effect, 100 complete control
[25] = Postemergence, 31 g ai/ha, scale 0 to 100 (0 no effect, 100 complete control)
[26] = Postemergence, 62 g ai/ha, scale 0 to 100 (0 no effect, 100 complete control)
[27] = Postemergence, 125 g ai/ha, scale 0 to 100, 0 no effect, 100 complete control

## FCc1nn(-c2ccc(F)cc2)nc1Oc1ccnc(C(F)(F)F)c1 [Compound 160]
Oilseed Rape; 16 g ai/ha
  Plant response rating, Oilseed Rape: 0

## CCOc1nn(-c2ccc(C(F)(F)F)cc2)nc1Cc1ccnc(C(F)(F)F)c1 [Compound 164, 4-[[5-ethoxy-2-[4-(trifluoromethyl)phenyl]-2H-1,2,3-triazol-4-yl]methyl]-2-(trifluoromethyl)pyridine]
Oilseed Rape; 31 g ai/ha
  Plant response rating, Oilseed Rape: 5

## CCCc1nn(-c2ccc(F)cc2)nc1Oc1ccnc(C(F)(F)F)c1 [Compound 168]
Oilseed Rape; 31 g ai/ha
  Plant response rating, Oilseed Rape: 100

## CCCc1nn(-c2ccc(C(F)(F)F)cc2)nc1Oc1ccnc(C(F)(F)F)c1 [Compound 170]
Oilseed Rape; 31 g ai/ha
  Plant response rating, Oilseed Rape: 95

## CCc1nn(-c2ccc(F)c(F)c2)nc1Oc1ccnc(C(F)(F)F)c1 [Compound 171]
[1]; [10]
  Plant response rating, Dayflower, VA: 0
[1]; [11]
  Plant response rating, Dayflower, VA: 0
[1]; [12]
  Plant response rating, Dayflower, VA: 0
[1]; [13]
  Plant response rating, Dayflower, VA: 30
[1]; [14]
  Plant response rating, Dayflower, VA: 30
[2]; [15]
  Plant response rating, Lambsquarters: 0
[2]; [16]
  Plant response rating, Lambsquarters: 0
[2]; 62 g ai/ha, scale 0 to 100
  Plant response rating, Lambsquarters: 35
[2]; 125 g ai/ha, scale 0 to 100
  Plant response rating, Lambsquarters: 65
[2]; 250 g ai/ha, scale 0 to 100
  Plant response rating, Lambsquarters: 98
Oilseed Rape; 31 g ai/ha
  Plant response rating, Oilseed Rape: 0
[3]; [15]
  Plant response rating, Goosegrass: 70
[3]; [16]
  Plant response rating, Goosegrass: 80
[3]; 62 g ai/ha, scale 0 to 100
  Plant response rating, Goosegrass: 100
[3]; 125 g ai/ha, scale 0 to 100
  Plant response rating, Goosegrass: 100
[3]; 250 g ai/ha, scale 0 to 100
  Plant response rating, Goosegrass: 100
Corn (Zea mays); [10]
  Plant response rating, Corn: 0
Corn (Zea mays); [11]
  Plant response rating, Corn: 0
Corn (Zea mays); [12]
  Plant response rating, Corn: 0
Corn (Zea mays); [13]
  Plant response rating, Corn: 0
Corn (Zea mays); [14]
  Plant response rating, Corn: 5

## CCCc1nn(-c2ccc(F)c(F)c2)nc1Oc1ccnc(C(F)(F)F)c1 [Compound 172]
[1]; [17]
  Plant response rating, Dayflower, VA: 50
[1]; [18]
  Plant response rating, Dayflower, VA: 20
[1]; [19]
  Plant response rating, Dayflower, VA: 30
[1]; [11]
  Plant response rating, Dayflower, VA: 40
[1]; [13]
  Plant response rating, Dayflower, VA: 70
[1]; [14]
  Plant response rating, Dayflower, VA: 90
[2]; [16]
  Plant response rating, Lambsquarters: 50
[2]; 125 g ai/ha, scale 0 to 100
  Plant response rating, Lambsquarters: 98
[2]; 250 g ai/ha, scale 0 to 100
  Plant response rating, Lambsquarters: 98
Oilseed Rape; 31 g ai/ha
  Plant response rating, Oilseed Rape: 60
[3]; [16]
  Plant response rating, Goosegrass: 98
[3]; 125 g ai/ha, scale 0 to 100
  Plant response rating, Goosegrass: 100
[3]; 250 g ai/ha, scale 0 to 100
  Plant response rating, Goosegrass: 100
Corn (Zea mays); [17]
  Plant response rating, Corn: 30
Corn (Zea mays); [18]
  Plant response rating, Corn: 15
Corn (Zea mays); [19]
  Plant response rating, Corn: 20
Corn (Zea mays); [11]
  Plant response rating, Corn: 0
Corn (Zea mays); [13]
  Plant response rating, Corn: 15
Corn (Zea mays); [14]
  Plant response rating, Corn: 15

## CCCc1nn(-c2ccc(F)cc2F)nc1Oc1ccnc(C(F)(F)F)c1 [Compound 179]
Oilseed Rape; 31 g ai/ha
  Plant response rating, Oilseed Rape: 80

## CCc1nn(-c2ccc(C(F)(F)F)c(F)c2)nc1Oc1ccnc(C(F)(F)F)c1 [Compound 183]
Oilseed Rape; 31 g ai/ha
  Plant response rating, Oilseed Rape: 60

## CCOc1nn(-c2ccc(Cl)cc2)nc1Cc1ccnc(C(F)(F)F)c1 [Compound 188]
Oilseed Rape; 31 g ai/ha
  Plant response rating, Oilseed Rape: 20

## CCOc1nn(-c2ccc(F)cc2)nc1Cc1ccnc(C(F)(F)F)c1 [Compound 196, 4-[[5-ethoxy-2-(4-fluorophenyl)-2H-1,2,3-triazol-4-yl]methyl]-2-(trifluoromethyl)pyridine]
[1]; [20]
  Plant response rating, Dayflower, VA: 30
[1]; [21]
  Plant response rating, Dayflower, VA: 50
[1]; [18]
  Plant response rating, Dayflower, VA: 60
[1]; [22]
  Plant response rating, Dayflower, VA: 60
[1]; [19]
  Plant response rating, Dayflower, VA: 70
[1]; [23]
  Plant response rating, Dayflower, VA: 5
[1]; [10]
  Plant response rating, Dayflower, VA: 35
[1]; [11]
  Plant response rating, Dayflower, VA: 35
[1]; [12]
  Plant response rating, Dayflower, VA: 50
[1]; [13]
  Plant response rating, Dayflower, VA: 65
[4]; [24]
  Plant response rating, Ragweed: 0
[4]; [15]
  Plant response rating, Ragweed: 0
[4]; [16]
  Plant response rating, Ragweed: 0
[4]; 125 g ai/ha, scale 0 to 100
  Plant response rating, Ragweed: 50
[5]; [15]
  Plant response rating, Speedwell: 5
[5]; [16]
  Plant response rating, Speedwell: 100
[5]; 62 g ai/ha, scale 0 to 100
  Plant response rating, Speedwell: 100
[5]; 125 g ai/ha, scale 0 to 100
  Plant response rating, Speedwell: 100
[6]; 31 g ai/ha, scale 0 to 100 (0 no effect, 100 complete control)
  Plant response rating: Russian Thistle: 90
[6]; 62 g ai/ha, scale 0 to 100 (0 no effect, 100 complete control)
  Plant response rating: Russian Thistle: 80
[6]; 125 g ai/ha, scale 0 to 100, 0 no effect, 100 complete control
  Plant response rating: Russian Thistle: 75
[6]; 16 g ai/ha, scale 0 to 100
  Plant response rating, Russian Thistle: 80
[7]; [25]
  Plant response rating: Lambsquarters: 90
[7]; [26]
  Plant response rating: Lambsquarters: 90
[7]; [27]
  Plant response rating: Lambsquarters: 95
[7]; [21]
  Plant response rating, Lambsquarters: 85
[7]; [10]
  Plant response rating, Lambsquarters: 55
[7]; [11]
  Plant response rating, Lambsquarters: 65
[7]; [12]
  Plant response rating, Lambsquarters: 100
[7]; [13]
  Plant response rating, Lambsquarters: 100
[8]; [25]
  Plant response rating: Barley, Spring: 20
[8]; [26]
  Plant response rating: Barley, Spring: 35
[8]; [27]
  Plant response rating: Barley, Spring: 55
[8]; [21]
  Plant response rating, Barley, Spring: 15
[8]; [10]
  Plant response rating, Barley, Spring: 5
[8]; [11]
  Plant response rating, Barley, Spring: 5
[8]; [12]
  Plant response rating, Barley, Spring: 15
[8]; [13]
  Plant response rating, Barley, Spring: 30
[9]; [25]
  Plant response rating: Barley, Winter: 20
[9]; [26]
  Plant response rating: Barley, Winter: 35
[9]; [27]
  Plant response rating: Barley, Winter: 40
[9]; [21]
  Plant response rating, Barley, Winter: 15
[9]; [10]
  Plant response rating, Barley, Winter: 5
[9]; [11]
  Plant response rating, Barley, Winter: 10
[9]; [12]
  Plant response rating, Barley, Winter: 15
[9]; [13]
  Plant response rating, Barley, Winter: 40
[2]; [24]
  Plant response rating, Lambsquarters: 60
[2]; [15]
  Plant response rating, Lambsquarters: 70
[2]; [16]
  Plant response rating, Lambsquarters: 80
[2]; 62 g ai/ha, scale 0 to 100
  Plant response rating, Lambsquarters: 95
[2]; 125 g ai/ha, scale 0 to 100
  Plant response rating, Lambsquarters: 98
[3]; [24]
  Plant response rating, Goosegrass: 40
[3]; [15]
  Plant response rating, Goosegrass: 60
[3]; [16]
  Plant response rating, Goosegrass: 75
[3]; 62 g ai/ha, scale 0 to 100
  Plant response rating, Goosegrass: 100
[3]; 125 g ai/ha, scale 0 to 100
  Plant response rating, Goosegrass: 100
Corn (Zea mays); [20]
  Plant response rating, Corn: 15
Corn (Zea mays); [21]
  Plant response rating, Corn: 15
Corn (Zea mays); [18]
  Plant response rating, Corn: 20
Corn (Zea mays); [22]
  Plant response rating, Corn: 20
Corn (Zea mays); [19]
  Plant response rating, Corn: 25
Corn (Zea mays); [23]
  Plant response rating, Corn: 0
Corn (Zea mays); [10]
  Plant response rating, Corn: 0
Corn (Zea mays); [11]
  Plant response rating, Corn: 0
Corn (Zea mays); [12]
  Plant response rating, Corn: 5
Corn (Zea mays); [13]
  Plant response rating, Corn: 30
